Data on 10 molecules can be found in ChEMBL document CHEMBL5356997, “Maydistacins A-G, Terpestacin-type Sesterterpenoids with Anti-inflammatory Activity from the Phytopathogenic Fungus Bipolaris maydis” (J Nat Prod, 2024).

Bounds are passed on as bounds.

Data set [1] relates to RAW264.7. The data set can be described thus: Antiinflammatory activity against LPS-stimulated mouse RAW264.7 cells assessed as inhibition of NO production at 50 uM preincubated with compound for 2 hrs followed by LPS stimulation and measured after 12 hrs by Griess reagent based microplate reader analysis relative to control. The following applies: time 14 hrs. The class given is functional. Background: The Griess reaction detects nitrite, a stable product of nitric oxide.

Data set [2] in a line: Cytotoxicity against mouse RAW264.7 cells assessed as cell survival at 50 uM by MTT assay relative to control. The class given is toxicity, cell-based. The following applies: read-out: Activity.
Data set [3] relates to RAW264.7. The data set can be described thus: Antiinflammatory activity against LPS-stimulated mouse RAW264.7 cells assessed as inhibition of NO production preincubated with compound for 2 hrs followed by LPS stimulation and measured after 12 hrs by Griess reagent based microplate reader analysis. The class given is functional, cell-based.

For `CC(=O)OC[C@@H](C)C1=C(O)C(=O)[C@@]2(C)C/C=C(\C)CC/C=C(\C)CC[C@H](O)/C(C)=C/C[C@H]12` [FUSAPROLIFERIN], the inhibition at 50 µM in the data set with RAW264.7 [1] was less than 40%. Besides, in data set [2], the viability at 50 µM is greater than 90%. Taken in the same sequence, the figures for `C/C1=C\C[C@]2(C)C(=O)C(O)=C([C@H](C)CO)[C@H]2C/C=C(\C)[C@@H](O)CC/C(C)=C/CC1` [TERPESTACIN] were less than 40% and greater than 90%.

`CC(=O)OC[C@@H](C)C1=C(O)C(=O)[C@@]2(C)C/C=C(\C)CC[C@@H]3O[C@@]3(C)CC[C@H](O)/C(C)=C/C[C@H]12`: the inhibition at 50 µM with RAW264.7 [1] is less than 40%. Besides, in data set [2], the viability at 50 µM was greater than 90%. As to `C/C1=C\C[C@]2(C)C(=O)C(O)=C([C@H](C)CO)[C@H]2C[C@H]2O[C@]2(C)[C@@H](O)CC/C(C)=C/CC1`, the inhibition at 50 µM in the data set on RAW264.7 [1] is less than 40%. In addition, the viability at 50 µM in data set [2] was greater than 90%. The corresponding values for `C/C1=C\C[C@]2(C)C(=O)C(O)=C([C@H](C)CO)[C@H]2C/C=C(\C)[C@@H]2CC[C@](C)(/C=C/C1)O2` are less than 40% and greater than 90%. As for `C/C1=C\C[C@]2(C)C(=O)C(O)=C([C@H](C)CO)[C@H]2C/C=C(\C)C(=O)CC/C(C)=C/CC1`, the viability at 50 µM in data set [2] is greater than 90%. For the same molecule, the IC50 with RAW264.7 [3] worked out at 19 µM. As to `CC(=O)O[C@H]1CC/C(C)=C/CC/C(C)=C/C[C@]2(C)C(=O)C(O)=C([C@H](C)CO)[C@H]2C/C=C/1C`, the inhibition at 50 µM in the data set with RAW264.7 [1] is less than 40%. The viability at 50 µM in data set [2] was greater than 90%. Taken in the same sequence, the figures for `CC(=O)OC[C@@H](C)C1=C(O)C(=O)[C@@]2(C)C/C=C(\C)C/C=C/[C@](C)(O)CC[C@@H](O)/C(C)=C/C[C@H]12` were less than 40% and greater than 90%. Taken in the same sequence, the figures for `CC(=O)OC[C@@H](C)C1=C(O)C(=O)[C@@]2(C)C/C=C(\C)CC/C=C(\C)CC[C@H](O)[C@@]3(C)O[C@@H]3C[C@H]12` were less than 40% and greater than 90%.

`C[C@@H]1C[C@H]2[C@@H]3CCC4=CC(=O)C=C[C@]4(C)[C@@]3(F)[C@@H](O)C[C@]2(C)[C@@]1(O)C(=O)CO` [DEXAMETHASONE]: the IC50 in the data set on RAW264.7 [3] stood at 6.7 µM.

By inhibition is commonly meant how much of the control response was suppressed. One may read the IC50 as the point on the concentration scale where inhibition reaches its midpoint.
